Read-outs that look alike come from different tables or passages of the source. Where no end group is shown, it is not given here.
What was measured:
[1] = test system: B16-F10 cells (lung metastases); details: for Mean Met Count / Percent Inhibition: Day 16; for Mean Met Count: SR1 220.51 μg/animal sc bid to end, Anti-PD-1-SCE 100 μg/animal ip biwk ×3, combination at the same doses, Cyclophosphamide 300 mg/kg ip Qd ×1; for Percent Inhibition: [1 − (T/C)] × 100, compared to Group 1 (vehicle); for Deaths NTR (non-treatment-related death) / Deaths TR (treatment-related death): n = 10 per group
Description: (§1) The animals were fed ad libitum water (reverse osmosis, 1 ppm Cl) and NIH 31 Modified and Irradiated Lab Diet® consisting of 18.0% crude protein, 5.0% crude fat, and 5.0% crude fiber. The mice were housed on irradiated Enrich-o'cobs™ bedding in static microisolators on a 12-hour light cycle at 20-22° C. (68-72° F.) and 40-60% humidity. DRS-NC specifically complies with the recommendations of the Guide for Care and Use of Laboratory Animals with respect to restraint, husbandry, surgical procedures, feed and fluid regulation, and veterinary care. The animal care and use program at DRS-NC is accredited by the Association for Assessment and Accreditation of Laboratory Animal Care International, which assures compliance with accepted standards for the care and use of laboratory animals.
(§2) A sixth group of animals was included as the “look-see” group (n=9). B16-F10 cells were harvested during log-phase growth and resuspended at a concentration of 7.5×10^5 cells/mL in PBS. Each mouse received an intravenous (i.v.) tail vein injection of 1.5×10^5 B16-F10 cells (0.2 mL cell suspension) on D1 of the study.
(§3) Test Articles: Anti-PD1 alpha peptide (coded as anti-PD-1-SCE, Lot. No. 5177/0214) and thymosin alpha-1 peptide (Thymalfasin, code-named SR1, Lot. No. 1402-224). DRS-NC assigned code names for the purpose of confidentiality during in-house testing. […] Dosing was not adjusted per body weight. Anti-PD-1-SCE antibody was diluted in PBS to yield a 10.0 mg/mL dosing solution, which provided a 100 mg/kg dosage in a dosing volume of 10 mL/kg. Dosing was not adjusted per body weight. […] Dosing was adjusted per body weight.
(§4) Endpoint: The endpoint of the B16MET-e117 study was defined as 100 metastases per lung set. Two to three animals from the “look-see” group were euthanized in three days intervals beginning on Day 9 and lung metastatic foci were counted. […] The study was terminated on D16 and all animals were euthanized and their metastases counted. Percent inhibition was defined as the difference between the number of metastatic foci of the designated control group and the number of metastatic foci of the drug-treated group, expressed as a percentage of the number of metastatic foci of the designated control group: % Inhibition=[1−(#Focidrug-treated/#Focicontrol)]×100
(§5) Toxicity: Animals were weighed daily for the first five days of the study and twice weekly thereafter. […] Acceptable toxicity was defined as a group mean body-weight loss of less than 20% during the study and not more than one treatment-related (TR) death among ten treated animals. Any dosing regimen resulting in greater toxicity is considered above the maximum tolerated dose (MTD). A death is classified as TR if attributable to treatment side effects as evidenced by clinical signs and/or necropsy, or if due to unknown causes during the dosing period or within fourteen days of the last dose. A death is classified as non-treatment-related (NTR) if there is no evidence that death was related to treatment side effects.
Statistical and Graphical Analyses: Prism (GraphPad) for Windows 6.02 was used for all graphical presentations and statistical analyses. The Mann-Whitney U-test, for analysis of medians, was used to determine the statistical significance between D16 B16F10 metastatic foci in control and treated groups. Two-tailed statistical analyses were conducted at P=0.05. A “box and whiskers” diagram was constructed to show the distribution of enumerated metastatic foci for each treatment group on D16.
Prism reports results as non-significant (ns) at P>0.05, significant (symbolized by “*”) at 0.01<P≤0.05, very significant (“**”) at 0.001<P≤0.01, and extremely significant (“***”) at P≤0.001.

[2] = test system: B16-F10 cells (lung metastases); details: for Mean Met Count: Day 15; for Inhibition (%): compared to Group 1; for Deaths NTR / Deaths TR: n = 10
Description: as §1, §2, §3, §4, §5
B16F10 Mouse Lung Metastatic Melanoma Model was developed. About 1.5×10^5 B16-F10 cells (0.2 mL cell suspension) were grown in vitro and administered intravenously (Day 0) to female B6D2F1/Crl mice. On Day 1 dosing with test agents initiated.
A “look see”-untreated-group was set to evaluate, over a period of 15 days, the number of metastasis. […] Three days later other three mice were examined. When the met count reached approximately 50-100 counts, all groups in the study were sacrificed and final met counts were established. The “look see” group count was not included in the final efficacy analysis. 50-100 met count defined as the target number because most of the individual metastasis could be count easily and mets were less likely to merge with each other difficulty the counting.

[3] = test system: B16F10 Murine Melanoma (lung metastasis foci); assay: Systemic B16F10 murine melanoma model, lung metastasis foci (independent laboratory); type: in vivo, C57BL/6 mice
[4] = test system: B16F10 murine melanoma; assay: Subcutaneous B16F10 murine melanoma model, thymosin (Study No. 1 and Study No. 2); type: in vivo, C57BL/6 mice; details: for mean tumor size / T/C value: day 14 post tumor inoculation; for tumor growth delay: at tumor size of 1,140 mm^3
Text: (§6) B16F10 murine melanoma model is derived from MB16 line by successive selection of metastatic clones. B16F1 to B16F10 (ATCC Number CRL-6475™) were generated, with F10 being passaged in mice for 10 times, and thus highly metastatic. This model is widely used in studying metastasis mechanisms, evaluating cancer therapeutics. It is also one of the most common syngeneic models for cancer immunotherapy. Both subcutaneous and experimental metastasis models are very useful.
To study the effect of thymosin in treating melanoma, thymosin alpha peptide (ZADAXIN) was administered to mice inoculated with B16F10 in two separate studies:
(§7) Tumor volumes and body weights were monitored throughout the study. Cisplatin was administered to the positive control group in a separate historical control study. The negative control group was administered with vehicle only in all studies.

[5] = test system: IL-1β; assay: Biomarker evaluation in subcutaneous B16F10 murine melanoma model (FIG. 4A); type: in vivo, C57BL/6 mice; details: subcutaneously twice a day for 6 days at 0.02, 0.06, 0.2, 0.3, 2, or 6 mg/kg, D4 and D7 after start of dosing
Description: (§8) FIG. 4A depicts evaluation of IL-1β in subcutaneous B16F10 murine melanoma model in C57BL/6 mice treated with thymosin. ZADAXIN™ (thymalfasin) was administered to mice subcutaneously twice a day for 6 days at 0.02, 0.06, 0.2, 0.3, 2, or 6 mg/kg 10 μL/g. IL-1β levels were lower in ZADAXIN™ (thymalfasin) treated groups compared to vehicle treated groups at D4 and D7 after start of dosing.
(§9) In the studies described above, a group of potential biomarkers were tested in, including IL-7, 11-18, TREM-1, IFN-α, procalcitonin, GM-CSF, IL-1α, IFN-γ, TNF a, IL-2, IL-4, IL-5, IL-6, IL-10, IL-12p70, and IL-1β.

[6] = test system: IL-4; assay: Biomarker evaluation in subcutaneous B16F10 murine melanoma model (FIG. 4B); type: in vivo, C57BL/6 mice; details: subcutaneously twice a day for 6 days at 0.02, 0.06, 0.2, 0.3, 2, or 6 mg/kg, D4 and D7 after start of dosing
Description: as §8, with “4B” for “4A”, “IL-4” for “IL-1β”, “higher” for “lower”
as §9

[7] = test system: IL-6; assay: Biomarker evaluation in subcutaneous B16F10 murine melanoma model (FIG. 4C); type: in vivo, C57BL/6 mice; details: subcutaneously twice a day for 6 days at 0.02, 0.06, 0.2, 0.3, 2, or 6 mg/kg, D4 and D7 after start of dosing
Description: as §8, with “4C” for “4A”, “IL-6” for “IL-1β”
as §9

[8] = test system: IL-1β; assay: Biomarker evaluation in subcutaneous B16F10 murine melanoma model (FIG. 4D); type: in vivo, C57BL/6 mice; details: subcutaneously twice a day for 6 days at 0.02, 0.06, 0.2, 0.3, 2, or 6 mg/kg, D4 and D7 after start of dosing
Description: as §8, with “4D” for “4A”
as §9

[9] = test system: B16F10 murine melanoma; assay: Subcutaneous B16F10 murine melanoma model, cisplatin positive control (separate historical control study); type: in vivo, mice
Text: as §6, §7
B16F10 mice treated with cisplatin typically show reduced tumor volume (FIG. 1A and Table 3).

[10] = Group 13: Cyclophosphamide 300 mg/kg ip qd ×1
[11] = Group 13: Cyclophosphamide 300 mg/kg
[12] = Group 9: Cyclophosphomide 300 mg/kg
[13] = Group 2: SR1 0.4862 μg/animal sc bid to end
[14] = Group 3: SR1 4.86 μg/animal sc bid to end
[15] = Group 4: SR1 48.62 μg/animal sc bid to end

O=P1(N(CCCl)CCCl)NCCCO1 (centres unmarked) [Cyclophosphamide]
Mean Met Count [1]: 0.5 | Percent Inhibition ([1]; doses as E23): 99.5% | Mean BW Nadir ([1]; lowest group mean body weight, as % change from Day 1, Cyclophosphamide nadir on Day 3, doses as E23): −4.3% | Deaths NTR (non-treatment-related death) ([1]; doses as E23): 0 | Deaths TR (treatment-related death) ([1]; doses as E23): 0 | Mean Met Count [2, 10]: 2 | Inhibition (%) [2, 10]: 99% | Mean BW Nadir ([2]; Group 13: Cyclophosphamide 300 mg/kg, % change from Day 1, nadir Day 2): −8.0% | Deaths NTR [2, 11]: 0 | Deaths TR [2, 11]: 0 | Inhibition (%) [3, 12]: 100% | Number of metastasis foci on day 13 (Mean ± SEM) [3, 12]: 0 ± 0

thymosin alpha 1 (Ac-SDAAVDTSSEITTKDLKEKKEVVEEAEN) [TA1, synthetic version sold as ZADAXIN (thymalfasin); code-named SR1]
tumor growth compared with vehicle treated group ([4]; all doses tested, FIG. 2 and FIG. 3): reduced tumor growth | tumor growth compared with vehicle treated group (FIG. 3) ([4]; several different doses, all tested doses): statistically significant reduced tumor growth | mean tumor size ([4]; study I, TA1 0.2 mg/kg bid i.p. for 7 days): 1,148 mm^3 | tumor growth delay ([4]; study I, TA1 0.2 mg/kg): 1.5 days | T/C value ([4]; study I, TA1 0.2 mg/kg): 57.56% | mean tumor size ([4]; study I, TA1 2 mg/kg bid i.p. for 7 days): 1,384 mm^3 | tumor growth delay ([4]; study I, TA1 2 mg/kg): 0.5 days | T/C value ([4]; study I, TA1 2 mg/kg): 69.36% | tumor growth ([4]; study I, TA1 6 mg/kg, decrease didn't reach a significant difference): can delay tumor growth | weight changes by group ([4]; thymosin treated B16F10 mice): no significant weight changes | IL-1β levels compared to vehicle treated groups [5]: lower | IL-4 levels compared to vehicle treated groups [6]: higher | IL-6 levels compared to vehicle treated groups [7]: lower | IL-1β levels compared to vehicle treated groups (FIG. 4D) [8]: lower | Mean Met Count [1]: 72.5 | metastases to lung in melanoma model ([1]; Study I): decreases metastases to lung | Percent Inhibition ([1]; doses as E23): 31.5% | Deaths NTR (non-treatment-related death) ([1]; doses as E23): 0 | Deaths TR (treatment-related death) ([1]; doses as E23): 0 | Mean Met Count [2, 13]: 186 | Inhibition (%) [2, 13]: −17% | Deaths NTR ([2]; Group 2: SR1 0.4862 μg/animal): 0 | Deaths TR ([2]; Group 2: SR1 0.4862 μg/animal): 0 | Mean Met Count [2, 14]: 182 | Inhibition (%) [2, 14]: −14% | Deaths NTR ([2]; Group 3: SR1 4.86 μg/animal): 0 | Deaths TR ([2]; Group 3: SR1 4.86 μg/animal): 0 | Mean Met Count [2, 15]: 167 | Inhibition (%) [2, 15]: −5% | Deaths NTR ([2]; Group 4: SR1 48.62 μg/animal): 0 | Deaths TR ([2]; Group 4: SR1 48.62 μg/animal): 0 | Inhibition (%) ([3]; Group 3: TA1 0.486 μg/mouse): 20.35% | Number of metastasis foci on day 13 (Mean ± SEM) ([3]; Group 3: TA1 0.486 μg/mouse): 92 ± 9 | Inhibition (%) ([3]; Group 4: TA1 4.86 μg/mouse): 41.83% | Number of metastasis foci on day 13 (Mean ± SEM) ([3]; Group 4: TA1 4.86 μg/mouse): 67 ± 12 | Inhibition (%) ([3]; Group 5: TA1 48.6 μg/mouse): 42.26% | Number of metastasis foci on day 13 (Mean ± SEM) ([3]; Group 5: TA1 48.6 μg/mouse): 66 ± 10

N.N.[Cl][Pt][Cl] [Cisplatin]
Tumor Size (mm^3) on Day 28 ([9]; B16F10 mice treated with cisplatin, Day 28, historical control study): 862 ± 233 mm^3 | body weight ([9]; B16F10 mice treated with cisplatin, FIG. 1B, result of the toxicity of cisplatin): significantly reduced body weight | T/C Value (%) on Day 28 ([9]; cisplatin vs vehicle, Day 28): 30% | T-C (days) at 800 mm^3 ([9]; cisplatin vs vehicle, at tumor size 800 mm^3): >4 days

Source: US12569542B2, “Treatment of cancer with immune stimulators” (SciClone Pharmaceuticals International (SG) PTE. LTD., priority 2014, dated 2026)
